Laboratory results as given in US20040198770A1, “Uses for l-tetrahydropalmatine” (PharmacoGenetics Limited, priority 2003, published 2004).

Tests used:
Format in all cases: in vivo
[1] = test system: ICR mice; test: Elevated plus-maze test; conditions: for Closed arm entry % / Closed arm entry No. / Total no. of arm entries / Open arm entry % / Open arm entry No.: 300 s; for Closed arm Time spent / Closed arm time spent % / Open arm time spent % / Open arm Time spent: 300 s test
Protocol: (§1) ICR mice of male sex, weighing 15.6-17.8 g were used, provided by Experimental Animal Centre of HKUST, housed in groups, given food and water ad libitum and maintained on a 12 hour light: 12 hour dark cycle. All of the experimental groups had 12 animals per group.
(§2) For each experimental animal, administered orally 0.2 ml (pH 7.2) of respective solvent at concentrations as stated above for each group (or double-distilled water for normal control group) one hour before testing.
The elevated plus-maze is made of 0.5 cm thick wood as a horizontal cross consisting of two open arms (25×5 cm) and two opposite arms (25×5 cm) enclosed by 10 cm high walls. The arms extend from a central platform having dimensions of 5×5 cm. The plus-maze is elevated to a height of 40 cm from the floor. The maze is put inside a box with dimensions of 30×30×50 cm. The mice are placed on the central platform of the maze facing a closed arm. The number of arm entries and the time spent in the open and closed arm are counted for 300 seconds (Pellow S. et al., “Anxiolytic and anxiogenic drug effects on exploratory activity in an elevated plus-maze: a novel test of anxiety in the rat”, Pharmacol Biochem Behav. 1986 March; 24(3): 525-9; PMID: 2871560). Arm entry was defined as one half body entered into the arm.

[2] = test system: ICR mice; test: Hole-board test; conditions: 300 s
Protocol: as §1, §2
The hole-board apparatus is a 0.5 cm thick walled wood arena of 60×60×30 cm, with four 5 cm equidistant 4 cm diameter holes spaced on the floor. The mice are placed on the centre of the arena and the number of head-dip on the hole and the number of rearing are counted during a 300 second test period (File S. E. et al., “The effects of triazolobenzo-diazepines in two animal tests of anxiety and in the holeboard.”, Br J Pharmacol. 1985 November; 86(3): 729-35; PMID: 2866006). After each trial, the floor of the apparatus was wiped and dried thoroughly with tissue to remove traces of the previous path.

[3] = test system: ICR mice; test: Horizontal-wire test; conditions: for No. of falling: Table 1, mice; for No. of falling / Number of falling: 60 s; for Number of falling: Table 2, mice
Protocol: as §1, §2
Mice are lifted by the tail and allowed to grasp a horizontally strung wire (1 mm diameter, 20 cm long and placed 20 cm above the table) with their forepaws and released (Bonetti E. P. et al., Psychopharmacology (Berl). 1982; 78(1): 8-18; PMID: 6292984). For each experimental animal, the number of falling onto the table in 60 seconds was determined.
There is no significant difference between same dosage l-THP and dl-THP groups.

[4] = test system: ICR mice; test: Locomotor activity test; conditions: for No. of Transitions: mice, 1 h before test, 300 s
Protocol: as §1, §2
An apparatus with a brown light-resistant box having dimensions of 60×60×30 cm was used to perform the test. It consists of four cylindrical plastic boxes of 20 cm diameter, each having 6 equally distributed infrared photocells. The locomotor activity was counted automatically during a 300 second test period. A decrease in the number of transitions reflects a decrease in locomotor activity.
Physical reflections existed for this group and there was no abnormal phenomenon in respiratory circulation.

[5] = mice, oral 0.5 mg/kg, 0.5 mg/kg

Structure (SMILES): CN1C(=O)CN=C(c2ccccc2)c2cc(Cl)ccc21 [DZ, Diazepam, reference compound]
- Closed arm entry % ([1]; mice, oral 1.0 mg/kg): 44.58 ± 4.10%
- Closed arm entry No. ([1]; mice, oral 1.0 mg/kg): 16.75 ± 3.26
- Total no. of arm entries ([1]; mice, oral 1.0 mg/kg): 38.25 ± 7.06
- Closed arm Time spent ([1]; mice, oral 1.0 mg/kg): 159.29 ± 14.18
- Closed arm time spent % ([1]; mice, oral 1.0 mg/kg): 54.81 ± 4.53 %
- Open arm time spent % ([1]; mice, oral 1.0 mg/kg, 1 mg/kg): 45.19 ± 4.53 %
- Open arm entry % ([1]; mice, oral 1.0 mg/kg, 1 mg/kg): 55.42 ± 4.10 %
- Rearing No. ([2]; oral 1.0 mg/kg): 26.38 ± 8.51
- Total No. (head-dip and rearing) ([2]; oral 1.0 mg/kg): 42.00 ± 7.11

Structure (SMILES): COc1cc2c(cc1OC)[C@@H]1Cc3ccc(OC)c(OC)c3CN1CC2 [l-THP, l-tetrahydropalmatine]
- No. of falling ([3]; oral 0.5 mg/kg): 0.4 ± 0.49
- No. of falling ([3]; oral 1.0 mg/kg): 0.4 ± 0.48
- No. of falling ([3]; oral 5.0 mg/kg): 0.5 ± 0.67
- No. of falling ([3]; oral 10 mg/kg): 1.0 ± 0.77
- No. of falling ([3]; oral 20 mg/kg): 4.5 ± 1.50
- No. of falling ([3]; oral 40 mg/kg): 8.5 ± 3.55
- Number of falling ([3]; oral 0.5 mg/kg): 0.40 ± 0.48
- Number of falling ([3]; oral 1.0 mg/kg): 0.40 ± 0.48
- Number of falling ([3]; oral 5.0 mg/kg): 0.50 ± 0.67
- Number of falling ([3]; oral 10 mg/kg): 1.00 ± 0.77
- Number of falling ([3]; oral 30 mg/kg): 18.50 ± 3.54
- oral dosage at which there is no myorelaxation effect ([3]; mice, oral): less than 20 mg/kg
- Optimal dosage for anxiolytic effect ([1]; experimental mice): 1 mg/kg
- medicinal effect under medium dosage ([1]; experimental mice, 5 mg/kg): sedative and hypnotic effect
- medicinal effect under low dosage ([1]; experimental mice, 0.1-2.5 mg/kg): anxiolytic effect
- most medicinal dosage (time spent and percentage of open arm entry) ([1]; mice, oral): 1 mg/kg
- Closed arm entry % ([1]; mice, oral 0.05 mg/kg): 67.89 ± 6.77%
- Closed arm entry No. ([1]; mice, oral 0.05 mg/kg): 19.33 ± 5.55
- Open arm entry % ([1]; mice, oral 0.05 mg/kg): 32.11 ± 6.77%
- Open arm entry No. ([1]; mice, oral 0.05 mg/kg): 8.75 ± 1.36
- Total no. of arm entries ([1]; mice, oral 0.05 mg/kg): 28.08 ± 5.62
- Closed arm Time spent ([1]; mice, oral 0.05 mg/kg): 225.42 ± 12.13
- Closed arm time spent % ([1]; mice, oral 0.05 mg/kg): 80.96 ± 3.55%
- Open arm Time spent ([1]; mice, oral 0.05 mg/kg): 53.08 ± 10.40
- Open arm time spent % ([1]; mice, oral 0.05 mg/kg): 19.04 ± 3.55%
- number of open arm entry of l-THP greater than dl-THP by ([1]; mice, oral 0.1 mg/kg): 31.7%
- percentage of open arm entry of l-THP greater than dl-THP by ([1]; mice, oral 0.1 mg/kg): 40.4%
- Closed arm entry % ([1]; mice, oral 0.1 mg/kg): 57.17 ± 4.26%
- Closed arm entry No. ([1]; mice, oral 0.1 mg/kg): 15.27 ± 2.41
- Open arm entry % ([1]; mice, oral 0.1 mg/kg): 42.83 ± 4.26 %
- Total no. of arm entries ([1]; mice, oral 0.1 mg/kg): 26.82 ± 4.38
- Closed arm Time spent ([1]; mice, oral 0.1 mg/kg): 217.27 ± 15.11
- Closed arm time spent % ([1]; mice, oral 0.1 mg/kg): 76.33 ± 5.61%
- Open arm Time spent ([1]; mice, oral 0.1 mg/kg): 68.18 ± 20.68
- Open arm time spent % ([1]; mice, oral 0.1 mg/kg): 23.67 ± 5.61%
- Closed arm entry % ([1]; mice, oral 0.5 mg/kg): 58.18 ± 6.37%
- Closed arm entry No. ([1]; mice, oral 0.5 mg/kg): 16.17 ± 1.95
- Total no. of arm entries ([1]; mice, oral 0.5 mg/kg): 27.92 ± 4.08
- Closed arm Time spent ([1]; mice, oral 0.5 mg/kg): 205.33 ± 20.02
- Closed arm time spent % ([1]; mice, oral 0.5 mg/kg): 74.19 ± 7.09%
- Open arm Time spent ([1]; mice, oral 0.5 mg/kg): 71.75 ± 21.08
- Open arm time spent % [1, 5]: 25.81 ± 7.09 %
- Open arm entry % [1, 5]: 41.82 ± 6.37 %
- Closed arm entry % ([1]; mice, oral 1.0 mg/kg): 55.53 ± 3.10%
- Closed arm entry No. ([1]; mice, oral 1.0 mg/kg): 14.92 ± 1.93
- Open arm entry % ([1]; mice, oral 1.0 mg/kg): 44.47 ± 3.10 %
- Total no. of arm entries ([1]; mice, oral 1.0 mg/kg): 26.92 ± 3.61
- Closed arm Time spent ([1]; mice, oral 1.0 mg/kg): 204.00 ± 16.42
- Closed arm time spent % ([1]; mice, oral 1.0 mg/kg): 71.94 ± 6.70%
- Open arm time spent % ([1]; mice, oral 1.0 mg/kg, 1 mg/kg): 28.06 ± 6.70 %
- Closed arm entry % ([1]; mice, oral 2.5 mg/kg): 59.61 ± 4.06%
- Closed arm entry No. ([1]; mice, oral 2.5 mg/kg): 15.92 ± 2.15
- Open arm entry % ([1]; mice, oral 2.5 mg/kg): 40.39 ± 4.09 %
- Open arm entry No. ([1]; mice, oral 2.5 mg/kg): 10.92 ± 2.50
- Total no. of arm entries ([1]; mice, oral 2.5 mg/kg): 26.83 ± 4.20
- Closed arm Time spent ([1]; mice, oral 2.5 mg/kg): 227.83 ± 12.15
- Closed arm time spent % ([1]; mice, oral 2.5 mg/kg): 78.04 ± 4.70%
- Open arm Time spent ([1]; mice, oral 2.5 mg/kg): 64.75 ± 16.70
- Open arm time spent % ([1]; mice, oral 2.5 mg/kg): 21.96 ± 4.70%
- number of open arm entry of l-THP less than dl-THP by ([1]; mice, oral 5 mg/kg): 357.4%
- percentage of open arm entry of l-THP less than dl-THP by ([1]; mice, oral 5 mg/kg): 69.5%
- Closed arm entry % ([1]; mice, oral 5.0 mg/kg): 70.37 ± 5.03%
- Closed arm entry No. ([1]; mice, oral 5.0 mg/kg): 7.83 ± 3.43
- Closed arm Time spent ([1]; mice, oral 5.0 mg/kg): 253.25 ± 24.32
- Closed arm time spent % ([1]; mice, oral 5.0 mg/kg): 88.54 ± 5.48%
- Open arm time spent % ([1]; mice, oral 5.0 mg/kg, 5 mg/kg): 11.46 ± 5.48 %
- Open arm entry % ([1]; mice, oral 5.0 mg/kg, 5 mg/kg): 29.63 ± 5.03%
- increase of percentage of open arm entry compared to the normal control group ([1]; mice, oral 0.1-2.5 mg/kg): 39.31-48.14%
- increase of percentage of time spent in open arm compared to the normal control group ([1]; mice, oral 0.1-2.5 mg/kg): 27.19-50.78%
- medicinal effect under high dosage ([4]; 20 mg/kg): inhibitive effect on CNS and myorelaxation
- No. of Transitions ([4]; oral 0.5 mg/kg): 121.1 ± 9.53
- No. of Transitions ([4]; oral 1.0 mg/kg): 111.3 ± 11.91
- No. of Transitions ([4]; oral 5.0 mg/kg): 104.5 ± 10.73
- No. of Transitions ([4]; oral 10 mg/kg): 101.4 ± 15.41
- No. of Transitions ([4]; oral 20 mg/kg): 53.0 ± 12.72
- No. of Transitions ([4]; oral 40 mg/kg): 13.6 ± 5.27
- Head-dip No. ([2]; oral 0.05 mg/kg): 15.83 ± 3.01
- Rearing No. ([2]; oral 0.05 mg/kg): 26.83 ± 5.51
- Total No. (head-dip and rearing) ([2]; oral 0.05 mg/kg): 42.67 ± 6.64
- Head-dip No. ([2]; oral 0.1 mg/kg): 18.73 ± 6.56
- Rearing No. ([2]; oral 0.1 mg/kg): 20.36 ± 9.54
- Rearing No. ([2]; oral 0.5 mg/kg): 27.08 ± 13.64
- Total No. (head-dip and rearing) ([2]; oral 0.5 mg/kg): 41.00 ± 10.20
- Rearing No. ([2]; oral 1.0 mg/kg): 23.50 ± 9.27
- Head-dip No. ([2]; oral 2.5 mg/kg): 15.67 ± 4.00
- Rearing No. ([2]; oral 2.5 mg/kg): 22.42 ± 4.06
- Total No. (head-dip and rearing) ([2]; oral 2.5 mg/kg): 38.08 ± 6.43
- Head-dip No. ([2]; oral 5.0 mg/kg): 8.75 ± 5.56
